In publication PMC4758254 (Nature plants, 2015):

Columns and labels:
AtINT2 = target: T1, AtINT2 (Arabidopsis thaliana, UniProt Q9C757); test: inhibition of arsenic uptake into yeast cells, ICP-MS; assay type: cell-based; details: 250 μM As(III), 0-8 μg/mL myo-inositol, 24 h, 30 °C; substrate competition
T1 sequence (Q9C757 1-580): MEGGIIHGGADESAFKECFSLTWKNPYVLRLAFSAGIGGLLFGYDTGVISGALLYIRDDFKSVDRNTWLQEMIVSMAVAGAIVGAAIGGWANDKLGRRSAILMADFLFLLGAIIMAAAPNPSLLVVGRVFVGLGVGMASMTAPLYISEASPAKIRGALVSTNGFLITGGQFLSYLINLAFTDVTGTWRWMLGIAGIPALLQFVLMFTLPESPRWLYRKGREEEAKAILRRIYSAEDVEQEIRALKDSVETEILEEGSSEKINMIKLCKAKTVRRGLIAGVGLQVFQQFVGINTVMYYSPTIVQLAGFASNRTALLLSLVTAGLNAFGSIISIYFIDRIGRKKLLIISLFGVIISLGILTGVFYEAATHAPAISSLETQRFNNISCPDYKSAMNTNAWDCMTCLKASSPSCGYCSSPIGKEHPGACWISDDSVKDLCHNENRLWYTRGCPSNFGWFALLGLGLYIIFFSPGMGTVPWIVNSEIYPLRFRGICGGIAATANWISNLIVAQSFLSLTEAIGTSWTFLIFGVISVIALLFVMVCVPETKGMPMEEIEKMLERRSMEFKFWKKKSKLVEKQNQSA

AtINT4 = target: T2, AtINT4 (Arabidopsis thaliana, UniProt O23492); test: as above; assay type: cell-based; details: 250 μM As(III), 0-8 μg/mL myo-inositol, 24 h, 30 °C; substrate competition
T2 sequence (O23492 1-582): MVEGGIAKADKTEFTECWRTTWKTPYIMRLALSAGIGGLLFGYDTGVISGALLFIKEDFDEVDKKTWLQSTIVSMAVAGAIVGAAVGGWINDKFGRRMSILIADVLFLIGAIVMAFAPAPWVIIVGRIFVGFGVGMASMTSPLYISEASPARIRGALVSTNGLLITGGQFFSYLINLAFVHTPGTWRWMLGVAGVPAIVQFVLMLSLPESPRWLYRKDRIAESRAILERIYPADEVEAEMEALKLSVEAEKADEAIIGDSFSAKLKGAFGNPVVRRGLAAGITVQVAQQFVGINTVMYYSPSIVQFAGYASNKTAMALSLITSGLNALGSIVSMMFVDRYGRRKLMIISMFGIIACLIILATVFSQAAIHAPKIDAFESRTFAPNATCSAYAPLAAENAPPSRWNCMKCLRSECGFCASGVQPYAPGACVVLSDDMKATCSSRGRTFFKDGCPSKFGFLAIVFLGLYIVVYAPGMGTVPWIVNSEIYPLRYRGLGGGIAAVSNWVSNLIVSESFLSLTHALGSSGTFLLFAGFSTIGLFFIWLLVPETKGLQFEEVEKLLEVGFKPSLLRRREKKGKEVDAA

O[C@H]1[C@H](O)[C@@H](O)[C@H](O)[C@@H](O)[C@H]1O [myo-inositol]
inhibition of arsenic uptake into yeast cells, ICP-MS (AtINT2): substrate competition inhibited arsenic accumulation in D458-1B expressing AtINT2 or AtINT4 | inhibition of arsenic uptake into yeast cells, ICP-MS (AtINT4): substrate competition inhibited arsenic accumulation in D458-1B expressing AtINT2 or AtINT4
